From PMC5581131, “The novel sphingosine-1-phosphate receptors antagonist AD2900 affects lymphocyte activation and inhibits T-cell entry into the lymph nodes” (Oncotarget, 2017)

Columns and labels:
human PBMCs = assay: 5-day MLR with Et-18-OCH3, BAPTA-AM or 8-bromo-cAMP preincubation, analogues present throughout; format: cell-based; settings: 2 μM
Experimental: To determine whether the effect of inhibition of AD2900 on PBMC proliferation is dependent on the same signal transduction pathways, we next examined the capacities of the intracellular Ca^2+ chelator-BAPTA-AM, phosphatidylinositol-specific PLC inhibitor-Et-18-OCH3, and cell-permeate exogenous cAMP-8-bromo-cAMP to alter the suppressive effect of AD2900 and FTY720 on PBMC proliferation. S1P served as a positive control (Figures 2A, 2B, and 2C, respectively). PBMCs were pre-incubated for 1 hour with the inhibitors before the addition of 2 μM AD2900, FTY720, or S1P in the MLR experiment. The inhibitors and the analogues were present in the culture throughout the allogeneic activation. AD2900 suppression of PBMC proliferation was reduced from 59% ± 3% to 32% ± 7% by the exogenous cAMP. BAPTA-AM also partially reversed AD2900 suppression of PBMC proliferation from 59% ± 3% to 32% ± 3%, yet Et-18-OCH3 had no effect (Figure 2A).
Figure 2 Effect of AD2900 on proliferation is dependent on cAMP reduction and calcium signal transduction The effect of Edelfosine (Et-18-OCH3) (Et), BAPTA-AM (BAPTA), or 8-bromo-cAMP (8-b-CAMP) on the inhibition of PBMC proliferation was tested in a 5-day MLR experiment. The cells were incubated with 1 μM Edelfosine, 0.2 μM BAPTA-AM, or 5 μM 8-bromo-cAMP for 1 hour before the addition of sphingolipid analogues, 2 μM AD2900 (AD) (A), FTY720 (FTY) (B), or S1P (C). Significances are compared to AD2900/FTY/S1P without preincubation, respectively. Graphs summarize the results of at least four independent experiments. Results of Student’s t-test: *(P < 0.05, two-tailed test), ** (P < 0.01, two-tailed test).
Human PBLs were collected from human whole blood collected from healthy donors. Subsequently, the cells were centrifuged on a Ficoll-Paque gradient (Fresenius Kabi Norge AS, Oslo, Norway) and were isolated from the interphase layer. For the human MLR experiment, PBMCs from one healthy donor were pretreated for 1 day with AD2900, AD2730, AD2750, YZ297, YZ158, FTY720, or SEW2871. After 24 h, cells were washed and plated at a concentration of 5 × 10^4 cells/well in round bottom 96-well plates containing RPMI-1640 medium Supplemented with 10% human AB serum, 1% penicillin/streptomycin, and 1% l-glutamine (Beit Haemek, Israel). PBMCs from a second donor were irradiated at 3000 γ dosage and added to the plate in a 1:1 ratio with the first donor cells. The cells were cultured for 5 days. For the thymidine incorporation assay, after 4 days of co-culture, cells were pulsed with ^3H-thymidine at 1 μCi (0.037MBq) per well (PerkinElmer, MA, USA) for 16 additional hours and then harvested onto glass-fiber filters. ^3H-thymidine incorporation was measured using Top Count. NXT (PerkinElmer, UK). In other experiments, the supernatant was harvested after 5 days of co-culture for IFN-γ and TNF-α cytokine ELISA measurements (eBioscience, CA, USA). The cells were then collected for assessing apoptosis by FACS in MACSQuant analyzer (Miltenyi Biotech, Germany). In another set of experiments, the PBMCs of two donors were mixed. Sphingolipid analogues were then added to the culture and sustained through the 5 days of the MLR experiment.

S1P1 expression on PBMCs = assay: S1P1 cell surface expression on PBMCs, FACS; format: cell-based, human
Experimental: Among the S1P receptors, S1P1 is the most widespread receptor in the immune system and is expressed by several cell populations. […] Since AD2900 functions as an antagonist on S1P1, we next checked whether AD2900 affects S1P1 expression on PBMCs; FTY720 and SEW2817 were used as positive controls. The percentage of cells expressing S1P1 on their cell surface was detected by FACS analysis and was calculated as % of expression in non-treated cells. Low doses of AD2900 led to a decreased number of S1P1-expressing PBMCs after a 30-min treatment (Figure 3A and Supplementary Figure 2C). […] The highest effect was obtained at 100 nM with a mean of 51% ± 9% expression as compared to untreated control PBMCs.
Figure 3 AD2900 downregulates the percentage of S1P1- and CCR7-expressing cells in PBMCs (A, B) The percentages of S1P1-positive PBMCs after the treatment with different concentrations of AD2900, FTY720, or SEW2871 and at different time points were examined by FACS analysis. S1P1 expression was tested in PBMCs after a 30-min treatment with AD2900 at different concentrations (A) or after a 30-min or 60-min treatment with 100 nM AD2900, FTY720, or SEW2871 (B). (C) The percentage of CCR7-positive PBMCs was tested by FACS analysis after a 30-min treatment with 100 nM AD2900, FTY720, or SEW2871. All the significances are compared to untreated PBMCs. Results summarize the results of at least four independent experiments. Results of Student’s t-test: *(P < 0.05, two-tailed test), ** (P < 0.01, two-tailed test), *** (P < 0.001, two-tailed test), **** (P < 0.0001, two-tailed test).
Human PBMCs: For the apoptosis test, anti-AnnexinV-FITC (BD Biosciences, CA, USA) was used. To analyze S1P1 surface expression on AD2900-treated PBMCs, the following were used: anti-S1P1 (Alomone labs, Israel), anti-EDG-1 (Abcam, UK), Dylight405-conjugated AffiniPure Goat Anti-Rabbit lgG (H + L), and APC-conjugated AffiniPure F(ab')2 Goat Anti-Rabbit lgG(H + L) (Jackson ImmonoResearch, USA). For CCR7 expression, we used anti-CCR7-APC (Biolegend, CA, USA).

Compound | suppression of PBMC proliferation (human PBMCs; present throughout MLR, without preincubation) | suppression of PBMC proliferation with BAPTA-AM (human PBMCs; 1 hour preincubation with 0.2 μM BAPTA-AM) | effect of Et-18-OCH3 on suppression of PBMC proliferation (human PBMCs; 1 hour preincubation with 1 μM Et-18-OCH3) | suppression of PBMC proliferation with exogenous cAMP (human PBMCs; 1 hour preincubation with 5 μM 8-bromo-cAMP) | effect on S1P1 cell surface expression, 30-min versus 60-min treatment (S1P1 expression on PBMCs; 100 nM) | S1P1 expression as compared to untreated control PBMCs (S1P1 expression on PBMCs; 100 nM, 30-min treatment, highest effect) | S1P1 expression level (S1P1 expression on PBMCs; 4000 nM, 30-min treatment) | concentrations that significantly and dose-dependently decreased S1P1 expression (S1P1 expression on PBMCs; 30-min treatment) | effect of Et-18-OCH3, BAPTA-AM and 8-bromo-cAMP on suppression of PBMC proliferation (human PBMCs; 1 hour preincubation with the inhibitors)
CCCCCCCCCCCCCCCCNC(CO)(CO)CO [AD2900] | 59% ± 3% | 32% ± 3% | no effect | 32% ± 7% | transient and reversed shortly after a 60-min treatment | 51% ± 9% | returned to that of untreated control | 25 to 2000 nM | –
CCCCCCCCc1ccc(CCC(N)(CO)CO)cc1 [FTY720, Fingolimod, reference compound] | – | – | – | – | smaller reduction of S1P1 cell surface expression, but its effect was not reversed after a 60-min treatment | – | – | – | not nullified by any of these interventions
